Results published in US20240084258A1, “METHOD FOR PREPARING BROWN ADIPOCYTE” (KYOTO PREFECTURAL PUBLIC UNIVERSITY CORPORATION, priority 2015, published 2024).

Experiments:
Type in all cases: cell-based
[1] = system: human dermal fibroblasts (HDFs); assay: UCP1 protein immunostaining, comparison of four inhibitors (Example 16); conditions: ALK5 inhibitor II 4 μM, LY2157299 8 μM; for UCP1 protein expression by immunostaining (induction into brown adipocytes): SB431542 4 μM, D4476 4 μM up to Day 9, day 14, FIG. 16A, 16B
Procedure: Thereafter, the cells were cultured in an adipocyte induction medium free of any compound of ALK5 inhibitor II, SB431542, LY215799 and D4476 during Day 9-Day 14. On day 14, the medium was removed by suction from each well, and the cells were washed with PBS(−).

[2] = system: human dermal fibroblasts (HDFs); assay: UCP1 gene mRNA, comparison of four inhibitors at 4-16 μM (Example 15); conditions: for induction efficiency into brown adipocytes (order): compound at 4, 8, 12 or 16 μM up to Day 9, UCP1 mRNA on day 14, FIG. 15; for UCP1 gene expression (conversion to brown adipocytes): compound at 4, 8, 12 or 16 μM up to Day 9, then without compound Day 9-14, FIG. 15
Procedure: (Day −1). In the control (Ctrl) group, the culture supernatant of the next day (Day 0) was removed by suction and the cells were cultured in a normal medium up to day 14 while substituting the medium with a fresh one once every other day. In groups other than the control (Ctrl) group, the culture supernatant was removed by suction on day 0, an adipocyte induction medium or an adipocyte induction medium added with any of ALK5 inhibitor II, SB431542, LY2157299 and D4476 at a concentration of 4 μM, 8 μM, 12 μM or 16 μM respectively was added at 1 mL/well.
Thereafter, the cells were cultured in an adipocyte induction medium free of any compound of ALK5 inhibitor II, SB431542, LY215799 and D4476 during Day 9-Day 14.

[3] = system: human dermal fibroblasts (HDFs); assay: UCP1, CIDEA and KCNK3 gene mRNA by real time RT-PCR (Example 17); conditions: ALK5 inhibitor II 4 μM or LY2157299 8 μM up to Day 9, day 14, FIG. 17
Procedure: (Day −1). In the control (Ctrl) group, the culture supernatant of the next day (Day 0) was removed by suction and the cells were cultured in a normal medium up to day 14 while substituting the medium with a fresh one once every other day. In groups other than the control (Ctrl) group, the culture supernatant was removed by suction on day 0, and an adipocyte induction medium added with any of ALK5 inhibitor II (4 μM) and LY2157299 (8 μM) was added at 1 mL/well.
Thereafter, the cells were cultured in an adipocyte induction medium free of any compound of ALK5 inhibitor II and LY215799 during Day 9-Day 14. On day 14, the medium was removed by suction from the wells of all groups, and the cells were washed with PBS(−).

[4] = system: human dermal fibroblasts (HDFs); assay: Oil Red O staining of fibroblasts cultured with compounds (Example 1); conditions: adipocyte induction medium with T3 1 nM and Rosiglitazone 1 μM, D4476 2 μM, SB431542 2 μM, ALK5 Inhibitor II 2 M, Pifithrin alpha 5 μM, day 14, FIG. 1
Procedure: The next day, the culture supernatant was removed by suction and, as described in the Figure, a normal medium, an adipocyte induction medium, or an adipocyte induction medium added with the compound and the like was added at 500 μL/well.
The adipocyte induction medium is a 10% FBS-added DMEM+MDI medium (10% FBS-added DMEM supplemented with 0.5 mM isobutylmethylxanthine (IBMX), 0.5 μM dexamethason and 1 μg/mL Insulin).
The concentrations of the additives are as follows: • T3: 1 nM • Rosiglitazone: 1 μM • D4476: 2 μM • Pifithrin alpha [p53 inhibitor]: 5 μM • SB431542: 2 μM • ALK5 Inhibitor II: […].
The culture medium was substituted by a fresh one every 3-4 days and the cells were cultured up to day 14.
After washing 3 times with sterile distilled water, Oil Red O staining solution was added, and the mixture was incubated at room temperature for 15 min. Then, the cells were washed with sterile distilled water and photographed at a magnification of 100 with a phase contrast microscope.

[5] = system: human dermal fibroblasts (HDFs); assay: UCP1 mRNA response of induced cells to Isoproterenol or FSK stimulation (Example 3); conditions: cells cultured 14 days with T3, Rosiglitazone and D4476, then 10 μM Isoproterenol or FSK for 5 hr; FIG. 3
Procedure: 10 μM Isoproterenol or FSK was added to these cells as described in the Figure. As a control, a group free of the addition was also prepared. After 5 hr, the culture medium was removed from each well by suction, the cells were washed with PBS(−) and total RNA was extracted from the cells with ISOGEN II. qRT-PCR was performed in the same manner as in Example 2. The mRNA level of UCP1 gene was quantified as a ratio to […] gene mRNA and calculated with the value of fibroblast cultured in the normal medium as 1.

[6] = system: human dermal fibroblasts (HDFs); assay: CIDEA gene mRNA by real time RT-PCR (Example 4); conditions: induction medium + T3 + Rosiglitazone, compounds 2 μM, day 14, FIG. 4
Procedure: (§1) The next day, the culture supernatant was removed by suction and, as described in the Figure, a normal medium, an adipocyte induction medium, or an adipocyte induction medium added with each compound and the like was added at 500 μL/well. […] The concentrations of the additives are as follows: • T3: 1 nM • Rosiglitazone: 1 μM • D4476: 2 μM • Pifithrin alpha [p53 inhibitor]: 5 μM • SB431542: 2 μM • ALK5 Inhibitor II: 2 μM. The culture medium was substituted by a fresh one every 3 4 days and the cells were cultured up to day 14.

[7] = system: human dermal fibroblasts (HDFs); assay: AdipoQ gene mRNA by real time RT-PCR (Example 6); conditions: induction medium + T3 + Rosiglitazone, D4476, SB431542, ALK5 Inhibitor II 2 μM, PD0325901 1 μM, day 14, FIG. 6
Procedure: (§2) This was seeded in a 24-well plate at a concentration of 1×10^4 cells/well (day 0), and culturing was started at 5% CO2/95% humid air, 37° C. The next day, the culture supernatant was removed by suction and, as described in the Figure, a normal medium, an adipocyte induction medium, or an adipocyte induction medium added with each low-molecular-weight compound and the like was added at 500 μL/well. […] The concentrations of the additives are as follows: • T3: 1 nM • Rosiglitazone: 1 μM • D4476: 2 μM. • Pifithrin alpha [p53 inhibitor]: 5 μM • PD0325901: 1 μM • SB431542: 2 μM • ALK5 Inhibitor II: 2 μM. The culture medium was substituted by a fresh one every 3-4 days and the cells were cultured up to day 14.

[8] = system: human dermal fibroblasts (HDFs); assay: UCP1 protein immunostaining, fluorescence intensity (Example 8); conditions: for UCP1 protein expression by immunostaining (conversion to brown adipocytes): induction medium + T3 + Rosiglitazone, D4476, SB431541, ALK5 inhibitor II, FSK 2 μM, PD0325901 1 μM, day 14, FIG. 8A-C
Procedure: as §1, with “[…]:” for “D4476:”, “SB431541:” for “Pifithrin alpha [p53 inhibitor]: 5 μM • SB431542:”, “inhibitor” for “Inhibitor”, “II: 2 μM • PD0325901: 1 μM • Forskolin (FSK):” for “II:”, “3-4” for “3 4”, “14. […] The cells were photographed at a magnification of 200 with a fluorescence microscope and the fluorescence intensity was measured.” for “14.”

[9] = system: human dermal fibroblasts (HDFs); assay: BODIPY staining of lipid droplets (Example 7); conditions: induction medium + T3 + Rosiglitazone, compounds 2 μM, day 14, FIG. 7A, 7B
Procedure: as §1, with “each low-molecular-weight” for “each”, “[…]:” for “D4476:”, “SB431541:” for “Pifithrin alpha [p53 inhibitor]: 5 μM • SB431542:”, “inhibitor” for “Inhibitor”, “3-4” for “3 4”, “14. […] The cells were photographed at a magnification of 200 with a fluorescence microscope and the fluorescence intensity was measured.” for “14.”

[10] = system: human dermal fibroblasts (HDFs); assay: UCP1 gene mRNA by real time RT-PCR (Example 2); conditions: induction medium + T3 + Rosiglitazone, D4476 2 μM, FSK 2 μM, PD0325901 1 μM, SB431542 2 μM, day 14, FIG. 2
Procedure: as §2, with “with each low-molecular compound and” for “with each low-molecular-weight compound and”, “D4476: 2 μM • Pifithrin” for “D4476: 2 μM. • Pifithrin”, “μM • Forskolin (FSK): 2 μM • PD0325901: 1” for “μM • PD0325901: 1”, “• SB431542: 2 μM.” for “• SB431542: 2 μM • ALK5 Inhibitor II: 2 μM.”

[11] = system: human dermal fibroblasts (HDFs); assay: PGC-1alpha gene mRNA by real time RT-PCR (Example 5); conditions: induction medium + T3 + Rosiglitazone, FSK 2 μM, PD0325901 1 μM, day 14, FIG. 5
Procedure: The next day, the culture supernatant was removed by suction and, as described in the Figure, a normal medium, an adipocyte induction medium, or an adipocyte induction medium added with each compound and the like was added at 500 μL/well. […] The concentrations of the additives are as follows: • T3: 1 nM • Rosiglitazone: 1 μM • Pifithrin alpha [p53 inhibitor]: 5 μM • Forskolin (FSK): 2 μM • PD0325901: 1 μM. The culture medium was substituted by a fresh one every 3-4 days and the cells were cultured up to day 14.

| Structure (SMILES) | UCP1 protein expression by immunostaining (induction into brown adipocytes) [1] | induction efficiency into brown adipocytes (order) [2] | UCP1 gene expression (conversion to brown adipocytes) [2] | Oil Red O staining [4] | mRNA expression of AdipoQ gene (conversion to brown adipocytes) [7] | UCP1 protein expression by immunostaining (conversion to brown adipocytes) [8] | mRNA expression of UCP1 gene (conversion to brown adipocytes) [10] | further results |
| --- | --- | --- | --- | --- | --- | --- | --- | --- |
| Cc1cccc(-c2nn3c(c2-c2ccnc4ccc(C(N)=O)cc24)CCC3)n1 [LY2157299, 4-[5,6-dihydro-2-(6-methyl-2-pyridinyl)-4H-pyrrolo[1,2-b]pyrazol-3-yl]-6-quinolinecarboxamide] | induced into brown adipocytes expressing UCP1 protein | second most strong | converted to brown adipocytes strongly expressing UCP1 gene |  |  |  |  | strength of induction of UCP1 expression (order) ([1]; immunostaining day 14, FIG. 16): second most strong; CIDEA gene expression [3]: induced into brown adipocytes expressing UCP1 gene, CIDEA gene and KCNK3 gene; KCNK3 gene expression [3]: induced into brown adipocytes expressing UCP1 gene, CIDEA gene and KCNK3 gene; UCP1 gene expression [3]: induced into brown adipocytes expressing UCP1 gene, CIDEA gene and KCNK3 gene |
| Cc1ccc(C(=O)Cn2c3c(sc2=N)CCCC3)cc1 [Pifithrin alpha] |  |  |  | hardly observed |  |  |  |  |
| CC(C)NCC(O)c1ccc(O)c(O)c1 (centres unmarked) [Isoproterenol, isoproterenol] |  |  |  |  |  |  |  | UCP1 mRNA expression on stimulation [5]: more strongly express UCP1 mRNA |
| NC(=O)c1ccc(-c2nc(-c3ccc4c(c3)OCO4)c(-c3ccccn3)[nH]2)cc1 [SB431542, 4-[4-(1,3-Benzodioxol-5-yl)-5-(pyridin-2-yl)-1H-imidazol-2-yl]benzamide] | induced into brown adipocytes expressing UCP1 protein | ALK5 inhibitor II>LY2157299>SB431541>D4476 | converted to brown adipocytes strongly expressing UCP1 gene | Remarkable Oil Red O staining | converted to brown adipocytes expressing mRNA of AdipoQ gene | converted to brown adipocytes expressing UCP1 protein | induced to brown adipocytes that express mRNA of UCP1 gene | mRNA expression of CIDEA gene (conversion to brown adipocytes) [6]: converted to brown adipocytes expressing mRNA of CIDEA gene; lipid droplets stained with BODIPY (conversion to brown adipocytes) [9]: converted to brown adipocytes having lipid droplets stained with BODIPY |
| O=C(NOC[C@H](O)CO)c1ccc(F)c(F)c1Nc1ccc(I)cc1F [PD0325901] |  |  |  |  | converted to brown adipocytes expressing mRNA of AdipoQ gene | converted to brown adipocytes expressing UCP1 protein | induced to brown adipocytes that express mRNA of UCP1 gene | change of expression of UCP-1 protein by addition culture ([8]; PD0325901 1 μM or Forskolin 2 μM, day 14, FIG. 8B): increases; mRNA expression of PGC-1alpha gene (conversion to brown adipocytes) [11]: converted to brown adipocytes expressing mRNA of PGC-1alpha gene |
